Read-outs that look alike come from different tables or passages of the source.
Tests used:
[1] = tested on: influenza A virus (A/PR/8/34 strain); assay type: cell-based; conditions: read-out: Inhibiting Activity Infection (IC50)
[2] = tested on: influenza A virus (A/PR/8/34 strain)
[3] = tested on: influenza A virus (A/PR/8/34 strain); assay type: cell-based; conditions: read-out: Inhibiting Activity Cell Fusion (IC50)

## Pentenyl(5-acetamido-3,5-dideoxy-D-glycero-α-D-galacto-2-nonulopyranosylic Acid)-O-β-D-galactopyranosyl-(1→4)-O-β-D-glucopyranoside [vii]
[1]
  IC50: 124 µM
[2]
  Inhibiting Activity Erythrocyte Aggregation: 133.3 µM
[3]
  IC50: 745 µM

From patent publication US20040040554A1 (priority 2000, published 2004)
